According to ChEMBL document CHEMBL1201862, “PubChem BioAssay data set” (2004):
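In this assay, cells in 96-well plates receive the compound at five concentrations for 48 hours. Endpoints are linearly interpolated between the surrounding concentrations. GI50 = concentration required for 50% inhibition of growth.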 The source made the active and inactive calls. Cut-off read from the data, not from the text of the source: active = GI50 up to about 1.1 µM and inactive = higher.

What was measured:
Assay in all cases: NCI tumour cell line growth inhibition, 48 h
[1] = system: TK-10
[2] = system: IGROV-1
[3] = system: HCT-116
[4] = system: OVCAR-3
[5] = system: SW-620
[6] = system: SF-295
[7] = system: SF-539
[8] = system: HL-60
[9] = system: EKVX
[10] = system: HCC 2998
[11] = system: ACHN
[12] = system: SK-MEL-5
[13] = system: CCRF-CEM
[14] = system: SK-OV-3
[15] = system: KM12
[16] = system: UACC-257
[17] = system: OVCAR-5
[18] = system: CAKI-1

| SMILES | GI50 [1] | GI50 [2] | GI50 [3] | GI50 [4] | GI50 [5] | GI50 [6] | GI50 [7] | GI50 [8] | GI50 [9] | GI50 [10] | GI50 [11] | GI50 [12] | GI50 [13] | GI50 [14] | GI50 [15] | GI50 [16] | GI50 [17] | GI50 [18] |
| --- | --- | --- | --- | --- | --- | --- | --- | --- | --- | --- | --- | --- | --- | --- | --- | --- | --- | --- |
| COc1ccc(OC)c(NCC#N)c1 | > 100 µM (inactive) | > 100 µM (inactive) | > 100 µM (inactive) | > 100 µM (inactive) | > 100 µM (inactive) | > 100 µM (inactive) | > 100 µM (inactive) | > 100 µM (inactive) | > 100 µM (inactive) | > 100 µM (inactive) | > 100 µM (inactive) | > 100 µM (inactive) | > 100 µM (inactive) | > 100 µM (inactive) | > 100 µM (inactive) | > 100 µM (inactive) | – | – |
| COc1cc2c(c(OC)c1OC)-c1ccc(OC)c(=O)cc1[C@@H](N(C)C=O)CC2 | 1.45 µM (inactive) | 0.0262 µM (active) | 0.0173 µM (active) | 0.0112 µM (active) | 0.0134 µM (active) | 0.0146 µM (active) | 0.0148 µM (active) | 0.0158 µM (active) | 9.2 µM (inactive) | 0.0168 µM (active) | 0.0802 µM (active) | < 0.01 µM (active) | 0.0164 µM (active) | – | < 0.01 µM (active) | – | > 8.51 µM (inactive) | 0.0304 µM (active) |
| CCOc1cccc2nc3cccc(C(=O)NCCN(C)C)c3nc12 | 1.27 µM (inactive) | 1.04 µM (active) | 0.447 µM (active) | 1.6 µM (inactive) | 0.543 µM (active) | 1.53 µM (inactive) | 1.14 µM (inactive) | – | 2.25 µM (inactive) | 0.946 µM (active) | 0.372 µM (active) | 1.78 µM (inactive) | – | 7.43 µM (inactive) | 0.867 µM (active) | 1.95 µM (inactive) | 2.02 µM (inactive) | 3.16 µM (inactive) |
| C=C1CCc2occ(C)c2C2C1C1=C(CC(C)C1=O)C1OC12C (configuration not stated) | > 100 µM (inactive) | > 100 µM (inactive) | 83 µM (inactive) | > 100 µM (inactive) | > 100 µM (inactive) | > 100 µM (inactive) | > 100 µM (inactive) | – | > 100 µM (inactive) | > 100 µM (inactive) | > 100 µM (inactive) | 52.2 µM (inactive) | > 100 µM (inactive) | > 100 µM (inactive) | > 100 µM (inactive) | > 100 µM (inactive) | 21.8 µM (inactive) | – |
| CN(C)c1nc(N(C)c2ccccc2)[s+]s1 | > 100 µM (inactive) | > 100 µM (inactive) | 41.7 µM (inactive) | – | > 100 µM (inactive) | 78.3 µM (inactive) | 57.9 µM (inactive) | 15.7 µM (inactive) | > 100 µM (inactive) | > 100 µM (inactive) | > 100 µM (inactive) | 36.5 µM (inactive) | 35.7 µM (inactive) | > 100 µM (inactive) | 36.3 µM (inactive) | 54.2 µM (inactive) | > 100 µM (inactive) | > 100 µM (inactive) |
| C(=N\OCc1ccccc1)/c1ncccc1C1OCCO1 | > 100 µM (inactive) | > 100 µM (inactive) | > 100 µM (inactive) | > 100 µM (inactive) | > 100 µM (inactive) | > 100 µM (inactive) | > 100 µM (inactive) | > 100 µM (inactive) | > 100 µM (inactive) | – | > 100 µM (inactive) | > 100 µM (inactive) | > 100 µM (inactive) | > 100 µM (inactive) | > 100 µM (inactive) | > 100 µM (inactive) | > 100 µM (inactive) | > 100 µM (inactive) |
| CCOC(=O)C1(Br)C(c2ccccc2)NC(=O)NC1(C)Br (configuration not stated) | > 100 µM (inactive) | 54.6 µM (inactive) | 60.4 µM (inactive) | 62.5 µM (inactive) | 0.332 µM (active) | > 100 µM (inactive) | – | 17.9 µM (inactive) | 95.3 µM (inactive) | > 100 µM (inactive) | > 100 µM (inactive) | 57.4 µM (inactive) | 33.9 µM (inactive) | > 100 µM (inactive) | > 100 µM (inactive) | 82 µM (inactive) | > 100 µM (inactive) | 18.5 µM (inactive) |
| COc1cc2c(c(OC)c1OC)-c1ccc(SC)c(=O)cc1[C@@H](NC(=O)c1ccc(C#N)cc1)CC2 | 3.3 µM (inactive) | < 0.01 µM (active) | < 0.01 µM (active) | < 0.01 µM (active) | < 0.01 µM (active) | < 0.01 µM (active) | < 0.01 µM (active) | < 0.01 µM (active) | < 0.01 µM (active) | < 0.01 µM (active) | < 0.01 µM (active) | < 0.01 µM (active) | < 0.01 µM (active) | < 0.01 µM (active) | < 0.01 µM (active) | < 0.01 µM (active) | < 0.01 µM (active) | – |
